Assay results from article PMC9697930 (International Journal of Molecular Sciences, 2022).
pIC50: −log10 of the molar value.

How the values were obtained:
[1] = molecular target: T1, ABCG2 (Homo sapiens, UniProt Q9UNQ0); experiment: Accumulation assay with mitoxantrone in MDCKII-ABCG2 cells; assay type: cell-based; details: normalized to Ko143, read-out: ABCG2 inhibition IC50
T1 construct: expressed in transfected cells; host or cells: MDCKII (canine kidney) subline MDCKII-ABCG2, gift of Dr. Alfred Schinkel
Protocol: (§1) The conduction of accumulation assays followed the slightly changed protocol described previously. In the study, MDCKII-par, MDCKII-ABCB1, MDCKII-ABCC1, MDCKII-ABCG2, and primary explants were seeded into 12-well plates in variant densities, 22.0 × 10^4, 15.0 × 10^4, 25.0 × 10^4, 22.0 × 10^4, and 15.0 × 10^4 cells/well, respectively. After 24 h incubation, two washing steps with 1 × PBS were applied. […] The cells were then incubated under standard conditions for 30 min. Next steps included placing the plates on ice, washing the cells with ice-cold 1 × PBS two-times, and detaching the cells with the ice-cold 10 × trypsin without phenol red. Following trypsinization, cells were resuspended in 1 × PBS containing 2% FBS. Subsequently, cell suspensions were transferred into the test tubes and kept on ice. The fluorescence in cells was measured immediately after the collection of their suspensions using flow cytometer Sony SA3800 Spectral Cell Analyzer (Sony Biotechnology, San Jose, CA, USA). SA3800 software (Sony Biotechnology, San Jose, CA, USA) was used to evaluate the data.

[2] = test system: MDCKII-par cells; experiment: Accumulation assay in control parent cells; assay type: cell-based, Canine
Protocol: as §1

[3] = test system: A431-ABCB1; experiment: MTT proliferation assay; assay type: cell-based; details: Homo sapiens, comparative MTT, 48 h, read-out: antiproliferative IC50
Protocol: (§2) The viability MTT assay was employed in several experimental sets, including induction studies, comparative viability assays, and drug combinations. First, 1.3 × 10^4 (MDCKII sublines), 1.2 × 10^4 (A431 sublines), 1.5 × 10^4 (MCF-7), and 1.0 × 10^4 (primary NSCLC explants) cells were seeded in 96-well plates. After seeding, cells were left to refresh in incubator for 24 h. Secondly, the medium was removed, and the serial dilutions of the drugs or drug combinations were added to the cells. Next to these variants, a medium with 40% DMSO and vehicle-containing media were tested as nonviable and unaffected viability controls, respectively. After an additional 48 h of incubation, the cells were washed with 1 × PBS and then treated with 1 mg/mL MTT solution in Opti-MEM. Subsequently, cells were incubated for 60 min under standard conditions. After MTT treatment, generated formazan crystals were solubilized with DMSO for 10 min. Wavelengths of 570 nm (formazan) and 690 nm (background) were used for absorbance measurements using a microplate reader Infinite 200 Pro NanoQuant (Tecan, Männedorf, Switzerland).

[4] = test system: patient-derived NSCLC explants; experiment: Accumulation of mitoxantrone and daunorubicin in ex vivo explants; assay type: cell-based, human; details: 5 µM talazoparib, 2 µM Ko143, 25 µM MK571
From the text: NSCLC specimens from lung lobectomies were donated by patients at the Department of Cardiac Surgery, University Hospital Hradec Kralove. All the patients signed the informed consent; its formulation was approved by the University Hospital Ethics Committee (study no. 202002 […]). The NSCLC malignant tissues were excised from lung lobes by the pathologist immediately after the surgery. Then, NSCLC primary explants were generated according to the established protocols. First, the tumor tissues were cut into small pieces by scalpel. Then, the cells were released from the tissue by the 0.1% collagenase in 1 × MEM at 37 °C for 30 min. Subsequently, 1% BSA in MEM (v/v) was added, and cells were filtered through a 40 μm pore-sized cell strainer. The resulting solution was centrifuged at 200 × g for 5 min and the pellet was resuspended in 1% BSA in MEM. The centrifugation (100 × g for 10 min) in Ficoll Paque Plus was used for removing biological impurities such as cell debris, etc. Next, the NSCLC cells were collected and transferred into c-based media. The additional centrifugation (200 × g for 5 min) was applied to remove the traces of Ficoll solution. […] The fluorescence in cells was measured immediately after the collection of their suspensions using flow cytometer Sony SA3800 Spectral Cell Analyzer (Sony Biotechnology, San Jose, CA, USA). […]

[5] = test system: MCF-7 cells; experiment: MTT viability experiment; assay type: cell-based, Human; details: 0.5 µM, 48 h
Protocol: as §2

[6] = in-human mass-balance study; cited from earlier work
[7] = molecular target: T2, ABCC1 (Homo sapiens, UniProt P33527); details: 12-days exposure; MCF-10A; cited from earlier work
[8] = molecular target: T2, ABCC1; experiment: Accumulation assay with daunorubicin in MDCKII-ABCC1 cells; assay type: cell-based; set-up: expressed in transfected cells; host or cells: MDCKII (canine kidney) subline MDCKII-ABCC1, gift of Dr. Alfred Schinkel; details: read-out: ABCC1 inhibition IC50
Protocol: as §1

T2 sequence (P33527 whole entry): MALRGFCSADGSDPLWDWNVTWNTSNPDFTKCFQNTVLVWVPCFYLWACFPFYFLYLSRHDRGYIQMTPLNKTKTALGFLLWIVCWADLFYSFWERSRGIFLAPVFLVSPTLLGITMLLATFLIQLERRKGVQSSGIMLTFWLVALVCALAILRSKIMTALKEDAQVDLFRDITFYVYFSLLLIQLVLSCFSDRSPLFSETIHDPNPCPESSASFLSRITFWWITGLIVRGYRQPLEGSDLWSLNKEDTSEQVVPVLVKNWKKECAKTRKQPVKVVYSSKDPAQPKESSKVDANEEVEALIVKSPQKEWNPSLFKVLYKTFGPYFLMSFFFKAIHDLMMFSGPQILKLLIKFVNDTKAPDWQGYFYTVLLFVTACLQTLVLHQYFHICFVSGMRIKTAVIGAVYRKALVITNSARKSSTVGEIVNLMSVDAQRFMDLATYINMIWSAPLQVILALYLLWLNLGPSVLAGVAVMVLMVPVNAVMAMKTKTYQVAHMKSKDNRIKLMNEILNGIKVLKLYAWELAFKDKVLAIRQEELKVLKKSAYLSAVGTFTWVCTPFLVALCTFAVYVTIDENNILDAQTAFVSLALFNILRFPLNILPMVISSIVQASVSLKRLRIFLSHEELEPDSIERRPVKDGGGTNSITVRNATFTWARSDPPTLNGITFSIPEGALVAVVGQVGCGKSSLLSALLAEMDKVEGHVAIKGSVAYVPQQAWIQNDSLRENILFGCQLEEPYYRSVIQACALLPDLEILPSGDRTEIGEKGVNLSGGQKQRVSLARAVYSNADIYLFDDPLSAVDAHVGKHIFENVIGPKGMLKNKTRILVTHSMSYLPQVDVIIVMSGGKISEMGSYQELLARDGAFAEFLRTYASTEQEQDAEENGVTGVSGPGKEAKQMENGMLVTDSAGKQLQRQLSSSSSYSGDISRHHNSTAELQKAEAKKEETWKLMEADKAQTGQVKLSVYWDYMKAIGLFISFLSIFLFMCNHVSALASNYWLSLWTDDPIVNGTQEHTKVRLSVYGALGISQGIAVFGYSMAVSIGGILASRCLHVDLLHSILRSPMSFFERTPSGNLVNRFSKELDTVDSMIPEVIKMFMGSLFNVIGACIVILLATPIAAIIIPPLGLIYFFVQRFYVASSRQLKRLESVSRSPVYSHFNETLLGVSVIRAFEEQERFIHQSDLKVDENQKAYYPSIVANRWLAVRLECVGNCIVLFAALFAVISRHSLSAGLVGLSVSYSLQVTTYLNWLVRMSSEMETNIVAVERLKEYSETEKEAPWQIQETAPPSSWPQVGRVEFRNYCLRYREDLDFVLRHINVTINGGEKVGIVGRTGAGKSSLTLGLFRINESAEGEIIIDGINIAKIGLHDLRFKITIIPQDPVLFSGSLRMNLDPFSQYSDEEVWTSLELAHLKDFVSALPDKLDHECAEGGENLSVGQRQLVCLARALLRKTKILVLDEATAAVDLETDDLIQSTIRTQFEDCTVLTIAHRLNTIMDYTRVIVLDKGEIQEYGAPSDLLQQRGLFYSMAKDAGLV
T1 sequence (Q9UNQ0 whole entry): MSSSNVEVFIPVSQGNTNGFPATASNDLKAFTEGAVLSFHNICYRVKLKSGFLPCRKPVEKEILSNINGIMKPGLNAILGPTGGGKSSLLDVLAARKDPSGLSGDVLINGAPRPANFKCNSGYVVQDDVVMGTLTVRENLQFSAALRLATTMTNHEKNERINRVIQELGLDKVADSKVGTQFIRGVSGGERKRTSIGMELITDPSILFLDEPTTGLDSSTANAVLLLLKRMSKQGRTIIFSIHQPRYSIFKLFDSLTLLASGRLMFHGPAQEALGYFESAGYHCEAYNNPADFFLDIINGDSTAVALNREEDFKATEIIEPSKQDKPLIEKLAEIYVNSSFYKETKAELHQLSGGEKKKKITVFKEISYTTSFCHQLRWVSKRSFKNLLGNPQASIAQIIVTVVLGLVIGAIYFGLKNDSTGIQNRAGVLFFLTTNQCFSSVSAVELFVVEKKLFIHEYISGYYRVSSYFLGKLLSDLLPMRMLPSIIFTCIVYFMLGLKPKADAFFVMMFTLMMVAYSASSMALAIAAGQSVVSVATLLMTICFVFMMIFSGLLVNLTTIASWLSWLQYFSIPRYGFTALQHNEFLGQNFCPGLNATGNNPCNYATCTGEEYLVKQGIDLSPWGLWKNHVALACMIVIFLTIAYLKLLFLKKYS

pIC50 [3]: 4.03
pIC50 [8]: 5.25
Structure (SMILES): Cn1ncnc1[C@H]1c2n[nH]c(=O)c3cc(F)cc(c23)N[C@@H]1c1ccc(F)cc1 [talazoparib, Talazoparib]
pIC50 [1]: 4.95
effect on accumulations of probe substrate drugs [2]: did not exhibit any significant effects
effect on cytostatic efflux / accumulation ([4]; primary cultures with high expression of ABCG2/ABCC1): significantly inhibited cytostatic efflux
effect on cytostatic efflux / accumulation ([4]; primary cultures with low expression of ABCG2/ABCC1): insignificant accumulation changes
toxicity in MTT viability experiment [5]: negligibly toxic
excretion [6]: a major fraction of the dose is excreted renally and biliary in unchanged form
extent of metabolism [6]: minimally metabolized
effect on ABCC1 mRNA [7]: upregulate
effect on ABCC1 protein level [7]: unchanged
